For orientation: melting point means the temperature, or range, at which the solid turns liquid.

Drawing on patent publication US9169217B2, “Arylalkyl esters of 4-amino-6-(substituted phenyl)-picolinates and 6-amino-2-(substituted phenyl)-pyrimidinecarboxylates and their use as selective herbicides for crops” (Dow AgroSciences LLC, priority 2011, dated 2015), this text covers pest or weed control and melting point for 14 compounds.

Data set [1] has as its system Cyperus difformis L. (small-flower flatsedge). Description: Postemergence foliar-applied herbicidal activity in direct seeded rice (Example 16). It is filed as in vivo. Conditions: post-emergence, 504 h, rice cropping systems, foliar-applied, 8.75 g ae/ha, 21 DAA, may represent multiple trials, read-out: Visual Injury (%) CYPDI. An excerpt: (§1) Seeds or nutlets of the desired test plant species were planted in a soil matrix prepared by mixing a loam soil (43 percent silt, 19 percent clay, and 38 percent sand, with a pH of about 8.1 and an organic matter content of about 1.5 percent) and river sand in an 80 to 20 ratio. The soil matrix was contained in plastic pots with a surface area of 139.7 cm^2. When required to ensure good germination and healthy plants, a fungicide treatment and/or other chemical or physical treatment was applied. The plants were grown for 10-17 d in a greenhouse with an approximate 14-h photoperiod which was maintained at about 29° C. during the day and 26° C. during the night. Nutrients and water were added on a regular basis and supplemental lighting was provided with overhead metal halide 1000-Watt lamps as necessary. The plants were employed for testing when they reached the second or third true leaf stage.
(§2) Treatments consisted of esters of compounds 1-4, 6-8, 10, 11, 13-16, 20-31, 35, 38, 41 and 42 and A-E. Compound A is methyl 4-amino-3-chloro-6-(4-chloro-3-ethoxy-2-fluorophenyl)-5-fluoropicolinate; compound B is methyl 4-amino-3-chloro-6-(4-cyclopropylphenyl)-5-fluoropicolinate; compound C is methyl 4-amino-3-chloro-6-(2,4-dichloro-3-methoxyphenyl)picolinate; compound D is methyl 6-amino-2-(4-chloro-2-fluoro-3-methoxyphenyl)-5-vinylpyrimidine-4-carboxylate; and compound E is methyl 4-amino-3-chloro-6-(4-chloro-2-fluoro-3-methoxyphenyl)-5-fluoropicolinate. Weighed amounts of technical grade compounds were placed in 25 mL glass vials and dissolved in a volume of 97:3 v/v acetone-DMSO to obtain 12× stock solutions. […] The concentrated stock solutions were added to the spray solutions so that the final acetone and DMSO concentrations were 16.2% and 0.5%, respectively. Spray solutions were diluted to the appropriate final concentrations with the addition of 10 mL of an aqueous mixture of 1.5% (v/v) Agri-dex crop oil concentrate. Generally, multiple concentrations of spray solutions were formulated and tested utilizing the same stock solution. The final spray solutions contained 1.25% (v/v) Agri-dex crop oil concentrate. Compound requirements are based upon a 12 mL application volume at a rate of 187 L/ha. Spray solutions were applied to the plant material with an overhead Mandel track sprayer equipped with 8002E nozzles calibrated to deliver 187 L/ha over an application area of 0.503 square meters (m^2) at a spray height of 18 inches (43 cm) above average plant canopy height. Control plants were sprayed in the same manner with the solvent blank.
(§3) The treated plants and control plants were placed in a greenhouse as described above and watered by sub-irrigation to prevent wash-off of the test compounds. After 3 weeks, the condition of the test plants, compared with that of the untreated plants, was determined visually and scored on a scale of 0 to 100 percent where 0 corresponds to no injury and 100 corresponds to complete kill.
(§4) By applying the well-accepted probit analysis as described by J. Berkson in Journal of the American Statistical […], 48, 565 (1953) and by D. Finney in “Probit Analysis” Cambridge University Press (1952), the data gathered can be used to calculate GR50 and GR80 values, which are defined as growth reduction factors that correspond to the effective dose of herbicide required to kill or control 50 percent or 80 percent, respectively, of a target plant.

In data set [2] the test system is Scirpus juncoides ROXB. (Japanese bulrush). Described as above. It is filed as in vivo. Conditions: Schoenoplectiella juncoides, post-emergence, 504 h; rice cropping systems, foliar-applied, 8.75 g ae/ha, 21 DAA; may represent multiple trials; read-out: Visual Injury (%) SCPJU.
Text: as §1, §2, §3, §4

Data set [3] relates to Echinochloa crus-galli (L.) P.BEAUV. (barnyardgrass). Description: In-water applied herbicidal activity in transplanted paddy rice (Example 17). Particulars: Echinochloa crus-galli, 504 h; rice cropping systems, in-water applied (paddy), 17.5 g ae/ha, 21 DAA; may represent multiple trials; read-out: Visual Injury (%) ECHCG. Type of data set: in vivo. As for the experimental part:
(§5) Weed seeds or nutlets of the desired test plant species were planted in puddled soil (mud) prepared by mixing a non-sterilized mineral soil (28 percent silt, 18 percent clay, and 54 percent sand, with a pH of about 7.3 to 7.8 and an organic matter content of about 1.0 percent) and water at a ratio of 100 kilograms (kg) of soil to 19 liters (L) of water. The prepared mud was dispensed in 250 mL aliquots into 480 mL non-perforated plastic pots with a surface area of 91.6 cm^2 leaving a headspace of 3 cm in each pot. Rice seeds were planted in Sun Gro MetroMix 306 planting mixture, which typically has a pH of 6.0 to 6.8 and an organic matter content of about 30 percent, in plastic plug trays. Seedlings at the second or third leaf stage of growth were transplanted into 650 mL of mud contained in 960 mL non-perforated plastic pots with a surface area of 91.6 cm^2 four days prior to herbicide application. The paddy was created by filling the 3 cm headspace of the pots with water. When required to ensure good germination and healthy plants, a fungicide treatment and/or other chemical or physical treatment was applied. The plants were grown for 4-14 d in a greenhouse with an approximate 14-h photoperiod which was maintained at about 29° C. during the day and 26° C. during the night. Nutrients were added as Osmocote (17:6:10, Nitrogen:Phosphorus:Potassium (N:P:K)+minor nutrients) at 2 grams (g) per cup. Water was added on a regular basis to maintain the paddy flood, and supplemental lighting was provided with overhead metal halide 1000-Watt lamps as necessary. The plants were employed for testing when they reached the second or third true leaf stage.
(§6) Treatments consisted of esters of compounds 1-4, 6-33, 35-39, 41 and 42 and A-G. Compound A is methyl 4-amino-3-chloro-6-(4-chloro-3-ethoxy-2-fluorophenyl)-5-fluoropicolinate; compound B is methyl 4-amino-3-chloro-6-(4-cyclopropylphenyl)-5-fluoropicolinate; compound C is methyl 4-amino-3-chloro-6-(2,4-dichloro-3-methoxyphenyl)picolinate; compound D is methyl 6-amino-2-(4-chloro-2-fluoro-3-methoxyphenyl)-5-vinylpyrimidine-4-carboxylate; compound E is methyl 4-amino-3-chloro-6-(4-chloro-2-fluoro-3-methoxyphenyl)-5-fluoropicolinate; compound F is methyl 6-amino-2-(4-chloro-2-fluoro-3-methoxyphenyl)-5-methoxypyrimidine-4-carboxylate; and compound G is methyl 4-amino-3-chloro-6-(4-chloro-2-fluoro-3-methoxyphenyl)picolinate. Weighed amounts of technical grade compounds were placed in individual 120 mL glass vials and were dissolved in 20 mL of acetone to obtain concentrated stock solutions. […] The concentrated stock solutions obtained were diluted with 20 mL of an aqueous mixture containing 2.5% Agri-dex crop oil concentrate (v/v). The final application solutions contained 1.25% (v/v) Agri-dex crop oil concentrate. Generally, multiple concentrations were tested utilizing the same stock solution. Applications were made by injecting an appropriate amount of the application solution into the aqueous layer of the paddy. Control plants were treated in the same manner with the solvent blank.
(§7) The treated plants and control plants were placed in a greenhouse as described above and water was added as needed to maintain a paddy flood. After 3 weeks the condition of the test plants, compared with that of the untreated plants, was determined visually and scored on a scale of 0 to 100 percent where 0 corresponds to no injury and 100 corresponds to complete kill.
as §4

Data set [4] concerns Scirpus juncoides ROXB. (Japanese bulrush). The description is as above. Type of data set: in vivo. Particulars: Schoenoplectiella juncoides, 504 h; rice cropping systems, in-water applied (paddy), 17.5 g ae/ha, 21 DAA; may represent multiple trials; read-out: Visual Injury (%) SCPJU. As for the experimental part: as §5, §6, §7, §4

The compound `COc1c(Cl)ccc(-c2nc(C(=O)OCc3cccc(F)c3)c(Cl)c(N)c2F)c1F` [Compound 23] had a melting point of 160 to 161 °C. Further, the pest or weed control at 8.75 g/ha in data set [1] stood at 100%. Also, the pest or weed control at 8.75 g/ha in data set [2] turned out to be 100%. Further, the pest or weed control at 17.5 g/ha in data set [3] was 60%. The pest or weed control at 17.5 g/ha in data set [4] amounted to 95%.
On to `COc1c(Cl)ccc(-c2nc(C(=O)OCCc3ccccc3)c(Cl)c(N)c2F)c1F` [Compound 15], for which the melting point was in the range of 84 to 85 °C. Also, the pest or weed control at 8.75 g/ha in data set [1] was 100%. Further, the pest or weed control at 8.75 g/ha in data set [2] was determined as 90%. Besides, the pest or weed control at 17.5 g/ha in data set [3] was determined as 30%. Further, in data set [4], the pest or weed control at 17.5 g/ha amounted to 70%.
For `COC(=O)c1cccc(COC(=O)c2nc(-c3ccc(Cl)c(OC)c3F)c(F)c(N)c2Cl)c1` [Compound 29], in that order: 144 to 145 °C, 100%, 100%, 10% and 60%.
For `COc1c(Cl)ccc(-c2nc(C(=O)OCc3ccc(C)cc3)c(Cl)c(N)c2F)c1F` [Compound 3], the melting point is 139 °C. The pest or weed control at 8.75 g/ha in data set [1] turned out to be 100%. Moreover, the pest or weed control at 8.75 g/ha in data set [2] was found to be 99%. Further, the pest or weed control at 17.5 g/ha in data set [3] turned out to be 78%. For the same compound, the pest or weed control at 17.5 g/ha in data set [4] came out at 99%.
As for `COc1c(Cl)ccc(-c2nc(C(=O)OCCc3ccc(Cl)cc3)c(Cl)c(N)c2F)c1F` [Compound 22], the melting point is 107 to 108 °C. The pest or weed control at 8.75 g/ha in data set [1] came out at 100%. For the same compound, in data set [2], the pest or weed control at 8.75 g/ha was 90%. In addition, the pest or weed control at 17.5 g/ha in data set [3] is 0%. Moreover, the pest or weed control at 17.5 g/ha in data set [4] was 40%.
On to `COc1c(Cl)ccc(-c2nc(C(=O)OCc3ccccc3C(F)(F)F)c(Cl)c(N)c2F)c1F` [Compound 26], for which the melting point fell in the range of 133 to 134 °C. The pest or weed control at 8.75 g/ha in data set [1] came to 100%. Moreover, in data set [2], the pest or weed control at 8.75 g/ha is 100%. Moreover, in data set [3], the pest or weed control at 17.5 g/ha was found to be 20%. Besides, the pest or weed control at 17.5 g/ha in data set [4] came to 100%.
The compound `COC(=O)c1ccc(COC(=O)c2nc(-c3ccc(Cl)c(OC)c3F)c(F)c(N)c2Cl)cc1` [Compound 16] returned a melting point of 182 °C. For the same compound, in data set [1], the pest or weed control at 8.75 g/ha was found to be 94%. In data set [2], the pest or weed control at 8.75 g/ha turned out to be 85%. In addition, the pest or weed control at 17.5 g/ha in data set [3] was 90%. Besides, the pest or weed control at 17.5 g/ha in data set [4] is 99%.
Taken in the same sequence, the figures for `COc1c(Cl)ccc(-c2nc(C(=O)OCc3ccc(C#N)cc3)c(Cl)c(N)c2F)c1F` [Compound 4] were 151 °C, 80%, 80%, 95% and 95%.
For the compound `COc1c(Cl)ccc(-c2nc(C(=O)OCc3ccc(C(F)(F)F)cc3)c(Cl)c(N)c2F)c1F` [Compound 6], the melting point lay in the range of 118 to 119 °C. The pest or weed control at 8.75 g/ha in data set [1] is 100%. Moreover, the pest or weed control at 8.75 g/ha in data set [2] is 100%. Besides, in data set [3], the pest or weed control at 17.5 g/ha stood at 60%. For the same compound, the pest or weed control at 17.5 g/ha in data set [4] was determined as 95%.
Consider `COc1c(Cl)ccc(-c2nc(C(=O)OCc3ccccc3C)c(Cl)c(N)c2F)c1F` [Compound 8], for which the melting point was 135 °C. For the same compound, the pest or weed control at 8.75 g/ha in data set [1] was 99%. Besides, in data set [2], the pest or weed control at 8.75 g/ha stood at 99%. Also, in data set [3], the pest or weed control at 17.5 g/ha was 100%. Moreover, the pest or weed control at 17.5 g/ha in data set [4] was 100%.
As to `COc1c(Cl)ccc(-c2nc(C(=O)OCc3cccc(C)c3)c(Cl)c(N)c2F)c1F` [Compound 11], the melting point came out at 150 °C. Also, in data set [1], the pest or weed control at 8.75 g/ha was 99%. In data set [2], the pest or weed control at 8.75 g/ha was 97%. Also, in data set [3], the pest or weed control at 17.5 g/ha was found to be 97%. Further, in data set [4], the pest or weed control at 17.5 g/ha was found to be 99%.
Regarding `COc1c(Cl)ccc(-c2nc(C(=O)OCc3ccc(F)cc3)c(Cl)c(N)c2F)c1F` [Compound 24], the melting point is 143 to 144 °C. Besides, in data set [1], the pest or weed control at 8.75 g/ha is 100%. Also, the pest or weed control at 8.75 g/ha in data set [2] came out at 100%. Also, in data set [3], the pest or weed control at 17.5 g/ha is 70%. Besides, the pest or weed control at 17.5 g/ha in data set [4] is 100%.
Take `COc1c(Cl)ccc(-c2nc(C(=O)OCc3ccc4ccccc4c3)c(Cl)c(N)c2F)c1F` [Compound 28]: the melting point was 142 to 143 °C. Further, in data set [1], the pest or weed control at 8.75 g/ha worked out at 100%. The pest or weed control at 8.75 g/ha in data set [2] worked out at 100%. In addition, in data set [3], the pest or weed control at 17.5 g/ha was determined as 10%. Besides, the pest or weed control at 17.5 g/ha in data set [4] was determined as 50%.
`COc1c(Cl)ccc(-c2nc(C(=O)OCc3ccc(Cl)cc3C)c(Cl)c(N)c2F)c1F` [Compound 30]: the melting point was 167 to 168 °C. The pest or weed control at 8.75 g/ha in data set [1] stood at 99%. For the same compound, in data set [2], the pest or weed control at 8.75 g/ha turned out to be 0%. In addition, the pest or weed control at 17.5 g/ha in data set [3] amounted to 50%. In addition, in data set [4], the pest or weed control at 17.5 g/ha was 85%.
